In one assay the target is T1, PI3Kα H1047R (Homo sapiens, UniProt P42336, H1047R).
T1 construct: The MDA-MB-453 (ATCC-HTB-131) cell line (PI3Kα H1047R); host or cells: MDA-MB-453
The assay can be described thus: PI3Kα H1047R mutant in vitro cell based assay, MDA-MB-453 cells (AlphaLisa SureFire). To be noted: MDA-MB-453 cell line, 0% FBS, 3 hours treatment. The method, boiled down:
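MDA-MB-453 cells (endogenous PI3Kα H1047R) were treated for 3 h in serum-free MEM containing 1 μg/mL insulin, with 10-point 1:3 dilutions in 0.3% DMSO. Lysates were read by AlphaLisa SureFire. IC50 came from a 4-parameter logistic fit of duplicate % inhibition, normalized to DMSO (max) and 1 μM GDC-0032 (min).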

The target of a further assay is PI3Kα E545K (Homo sapiens, UniProt P42336, E545K). The assay can be described thus: PI3Kα E545K mutant in vitro cell based assay, MDA-MB-361 cells. The arrangement: MDA-MB-361 (ATCC-HTB-27) cell line (PI3Kα E545K); host or cells: MDA-MB-361. To be noted: MDA-MB-361 cell line, 0% FBS, no insulin, 3 hours treatment. The method, boiled down: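 MDA-MB-361 cells (PI3Kα E545K) seeded in serum-free MEM assay medium without insulin, attached overnight, then treated 3 h with compound (10-point 1:3 series, 0.3% DMSO). AlphaLISA SureFire readout of lysates. IC50 by 4-parameter fit, normalized to DMSO (max) and 1 μM GDC-0032 (min).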

Experimental findings from patent US20240182460A1, “ALLOSTERIC CHROMENONE INHIBITORS OF PHOSPHOINOSITIDE 3-KINASE (PI3K) FOR THE TREATMENT OF DISEASE” (PETRA PHARMA CORPORATION, priority 2022, published 2024) are described below.

SMILES strings stand for the structures. Some results are limits rather than exact numbers.

T1 sequence (P42336 whole entry H1047R): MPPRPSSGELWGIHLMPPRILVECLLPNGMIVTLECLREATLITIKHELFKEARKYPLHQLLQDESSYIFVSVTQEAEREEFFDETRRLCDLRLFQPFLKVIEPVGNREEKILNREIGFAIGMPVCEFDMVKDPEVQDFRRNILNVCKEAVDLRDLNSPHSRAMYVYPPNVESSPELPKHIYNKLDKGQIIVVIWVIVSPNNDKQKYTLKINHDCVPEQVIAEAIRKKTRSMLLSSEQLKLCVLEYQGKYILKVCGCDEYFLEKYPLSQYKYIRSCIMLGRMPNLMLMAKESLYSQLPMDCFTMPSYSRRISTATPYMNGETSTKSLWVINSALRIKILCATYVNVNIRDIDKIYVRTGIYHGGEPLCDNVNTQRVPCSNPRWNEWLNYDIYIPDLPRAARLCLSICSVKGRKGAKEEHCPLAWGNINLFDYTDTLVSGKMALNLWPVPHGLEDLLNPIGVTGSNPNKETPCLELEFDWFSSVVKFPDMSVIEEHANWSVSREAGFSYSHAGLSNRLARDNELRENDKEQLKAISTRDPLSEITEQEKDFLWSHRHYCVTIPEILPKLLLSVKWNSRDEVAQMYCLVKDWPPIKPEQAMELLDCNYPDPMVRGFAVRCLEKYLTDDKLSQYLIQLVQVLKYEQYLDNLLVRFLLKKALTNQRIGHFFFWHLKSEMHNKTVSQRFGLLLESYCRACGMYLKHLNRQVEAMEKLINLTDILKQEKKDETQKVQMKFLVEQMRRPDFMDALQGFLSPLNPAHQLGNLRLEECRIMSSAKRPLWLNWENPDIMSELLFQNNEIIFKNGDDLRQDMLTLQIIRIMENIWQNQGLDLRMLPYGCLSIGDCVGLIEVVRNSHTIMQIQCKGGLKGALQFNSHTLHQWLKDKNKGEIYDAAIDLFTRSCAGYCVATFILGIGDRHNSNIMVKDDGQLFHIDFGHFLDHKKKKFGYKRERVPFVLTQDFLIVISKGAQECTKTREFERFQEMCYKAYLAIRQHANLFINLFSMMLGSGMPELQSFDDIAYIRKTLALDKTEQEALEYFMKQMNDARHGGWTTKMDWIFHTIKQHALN
T1 sequence (P27986 whole entry partner): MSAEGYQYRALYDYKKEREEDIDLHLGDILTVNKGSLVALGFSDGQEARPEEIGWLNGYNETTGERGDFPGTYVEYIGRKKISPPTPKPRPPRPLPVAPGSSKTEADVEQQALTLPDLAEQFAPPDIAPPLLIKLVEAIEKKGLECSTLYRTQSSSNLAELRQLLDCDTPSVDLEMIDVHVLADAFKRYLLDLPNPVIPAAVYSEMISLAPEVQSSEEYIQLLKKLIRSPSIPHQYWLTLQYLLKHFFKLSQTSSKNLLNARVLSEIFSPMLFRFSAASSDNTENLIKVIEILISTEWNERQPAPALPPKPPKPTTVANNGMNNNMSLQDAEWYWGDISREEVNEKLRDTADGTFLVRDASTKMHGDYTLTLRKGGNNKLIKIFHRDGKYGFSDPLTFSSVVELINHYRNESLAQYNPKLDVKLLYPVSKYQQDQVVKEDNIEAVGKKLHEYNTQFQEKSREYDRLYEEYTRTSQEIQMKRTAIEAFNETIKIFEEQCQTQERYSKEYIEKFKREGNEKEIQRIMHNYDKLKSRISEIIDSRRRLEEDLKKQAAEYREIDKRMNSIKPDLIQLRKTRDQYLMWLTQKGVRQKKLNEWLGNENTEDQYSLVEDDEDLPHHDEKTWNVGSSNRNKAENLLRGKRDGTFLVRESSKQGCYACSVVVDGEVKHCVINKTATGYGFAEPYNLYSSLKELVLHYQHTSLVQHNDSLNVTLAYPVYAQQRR
Chain of PI3Kα E545K (P42336 whole entry E545K): as the sequence (P42336 whole entry H1047R) above, with E545K, R1047H counted along it
Chain of PI3Kα E545K (P27986 whole entry partner): as the sequence (P27986 whole entry partner) above

The term IC50 denotes the point on the concentration scale where inhibition reaches its midpoint. The low end stands for greater potency in that assay, the high end for weaker potency in that assay. With `Cc1cc([C@@H](C)Oc2ccc(Cl)nc2C(N)=O)c2oc(-c3cc(F)c4nn(C)cc4c3)c(C)c(=O)c2c1` [Example 17B, 6-Chloro-3-[(1R)-1-[2-(7-fluoro-2-methyl-indazol-5-yl)-3,6-dimethyl-4-oxo-chromen-8-yl]ethoxy]pyridine-2-carboxamide], the IC50 against PI3Kα H1047R is less than 100 nM; on PI3Kα E545K it was less than 500 nM.

For the compound `Cc1cc([C@@H](C)Oc2ccc(Cl)nc2-c2noc(=O)[nH]2)c2oc(-c3ccc4c(c3)OC(F)(F)O4)c(C)c(=O)c2c1` [Example 46A, 3-[6-Chloro-3-[(1R)-1-[2-(2,2-difluoro-1,3-benzodioxol-5-yl)-3,6-dimethyl-4-oxo-chromen-8-yl]ethoxy]-2-pyridyl]-4H-1,2,4-oxadiazol-5-one], the results for the IC50 on PI3Kα H1047R and at PI3Kα E545K were less than 100 nM and less than 500 nM, respectively.

Turning to `CC(=O)Nc1ccc(-c2oc3c([C@@H](C)Oc4ccc(Cl)nc4C(N)=O)cc(C)cc3c(=O)c2C)cc1` [Example 58C, 3-[(1R)-1-[2-(4-Acetamidophenyl)-3,6-dimethyl-4-oxo-chromen-8-yl]ethoxy]-6-chloro-pyridine-2-carboxamide], the results for the concentration for half-maximal inhibition (IC50) against PI3Kα H1047R and against PI3Kα E545K were less than 100 nM and less than 500 nM, respectively.

In the case of `Cc1cc([C@@H](C)Oc2ccc(Br)nc2C(N)=O)c2oc(-c3ccc4nn(C)cc4c3)c(C)c(=O)c2c1` [Example 81C, 6-Bromo-3-[(1R)-1-[3,6-dimethyl-2-(2-methylindazol-5-yl)-4-oxo-chromen-8-yl]ethoxy]pyridine-2-carboxamide], the results for the IC50 against PI3Kα H1047R and at PI3Kα E545K were less than 100 nM and less than 500 nM, respectively.

For `Cc1cc([C@@H](C)Oc2ccc(Cl)nc2NS(C)(=O)=O)c2oc(-c3cnn(C)c3)c(C)c(=O)c2c1` [Example 149A, N-[6-Chloro-3-[(1R)-1-[3,6-dimethyl-2-(1-methylpyrazol-4-yl)-4-oxo-chromen-8-yl]ethoxy]-2-pyridyl]methanesulfonamide], on PI3Kα E545K, the IC50 is less than 500 nM.
